Measurements from patent US8557866B2, “Isomeric mixtures of dinitro-octylphenyl esters and synergistic fungicidal mixtures therefrom” (Dow AgroSciences, LLC., priority 2007, dated 2013).

Key:
[1] = tested on: Uncinula necator (UNCINE); experiment: High volume spray greenhouse test, 1 day protectant, grape powdery mildew; format: in vivo, Uncinula necator on grapes
[2] = tested on: wheat powdery mildew (ERYSGT); experiment: Synergy test (Colby), 2 day curative glasshouse studies against wheat powdery mildew; format: in vivo, Erysiphe graminis f.sp tritici on wheat; settings: alone, ERYSGT 2 day curative
[3] = tested on: Erysiphe cichoracearum (ERYSCI); experiment: High volume spray greenhouse test, 1 day protectant, cucumber powdery mildew; format: in vivo, Erysiphe cichoracearum on cucumbers; settings: rate 200 ppm
Protocol: (§1) The composition of Example 1 was evaluated for fungicidal efficacy in a greenhouse on 9 diseases caused by plant pathogenic fungi (TABLE II). The plant cultivars used in this study were Ugni Blanc (grape), Bovowinka (crab apple), HH88 (sugar beet), M-9 (rice) and Yuma (wheat). Broad leaf plants and rice were grown in a soil-less peat-based potting mixture (Metromix), and wheat was grown in a 50/50 mix of mineral soil and Metromix. The wheat was grown at a temperature of 20° C. and all the other plants were grown at 25° C. Apple seeds were soaked in water, incubated for a short time in 200 ppm solution of benlate and washed again with water. The moist seeds were stored in a closed container at 7° C. (45° F.) and washed once a week with water until the radical had emerged 3 mm (approximately 30 days). The seeds were then planted and seedlings with 4-6 leaves were typically ready for inoculation 3 weeks later.
(§2) The composition of Example 1 was applied to seedlings at 100, 50, 25, and 12.5 ppm using a high volume spray application. The composition was formulated in water and serial dilutions made and then brought up to volume by adding water solution. […] Plants were evaluated for percent disease incidence 7-14 days after inoculation and the average percent disease control determined. […]

[4] = tested on: Puccinia recondita (PUCCRT); experiment: High volume spray greenhouse test, 1 day protectant, wheat brown rust; format: in vivo, Puccinia recondita on wheat
Protocol: as §1
The composition of Example 1 was applied to seedlings at 100, 50, 25, and 12.5 ppm using a high volume spray application. The composition was formulated in water and serial dilutions made and then brought up to volume by adding water solution. Plants were sprayed to run off with 15 mL of solution on a turn-table sprayer with two opposing 4JAUPM air atomization nozzles (Spraying Systems) at a pressure of 138 kPa. Volume of spray solution on a per hectare basis is approximately 4000 L/ha. Plants were inoculated with the pathogens 1 day after application of the composition of Example 1 (1 day protectant test), incubated in a dew chamber for 24 hours with 100 percent relative humidity and then moved to an appropriate environment for disease expression for the duration of the test. Three replicate pots were sprayed for each pathogen/composition combination. Plants were evaluated for percent disease incidence 7-14 days after inoculation and the average percent disease control determined.
(§3) Plants were inoculated with various pathogens 1 day after application of the composition of EXAMPLES 1, 4-5 (protectant tests) and 2 days before application for EXAMPLES 6-7 (curative tests). For all wheat trials, compositions were applied at growth stage 1.2, when the second leaf was expanded to ½ of its final size (12 days after seeds were first watered). Information on the growth stages of other plant species at the time composition application and on the propagation and inoculation procedures associated with each pathogen is given below.
(§4) PUCCRT: Spores of the obligate pathogen PUCCRT were collected from infected plants with a vacuum apparatus and stored at 4° C. Approximately 0.1 g of fresh spores (stored at 4° C. for less than 30 days) was mixed with several drops of Tween 20. The thick spore paste was diluted to 100 ml with water and sprayed to run-off on wheat seed seedlings. Plants inoculated with PUCCRT were kept in a 20° C. dew chamber overnight and then transferred to a 20° C. growth chamber where symptoms developed in 8-9 days.

[5] = tested on: PYRIOR; format: in vivo, PYRIOR on rice; settings: rate 200 ppm, high volume test
[6] = tested on: Erysiphe graminis f.sp tritici (ERYSGT); experiment: High volume spray greenhouse test, 1 day protectant, wheat powdery mildew; format: in vivo, Erysiphe graminis f.sp tritici on wheat
Protocol: as §1, §2

[7] = tested on: Venturia inaequalis (VENTIN); experiment: High volume spray greenhouse test, 1 day protectant, apple scab; format: in vivo, Venturia inaequalis on apple
[8] = tested on: wheat brown rust (PUCCRT); experiment: Synergy test (Colby), 1 day protectant glasshouse studies against wheat brown rust; format: in vivo, Puccinia recondita on wheat; settings: alone, PUCCRT 1 day protectant
Text: as §3, §4
A synergistic effect exists whenever the action of an active ingredient combination is greater than the sum of the action of the individual components.
The action to be expected E for a given active ingredient combination obeys the so-called COLBY formula and can be calculated as follows (COLBY, S. R. “Calculating synergistic and antagonistic responses of herbicide combination”. Weeds, Vol. 15, pages 20-22; 1967)
X=percent action by active ingredient I using p ppm of active ingredient
Y=percent action by active ingredient II using q ppm of active ingredient
According to Colby the expected additive action of active ingredients I+II using p+q ppm of active ingredients is E=X+Y−(X*Y)/100
If the action actual observed (O) is greater than the expected action (E), then the action of the combination is super additive, that is, there is a synergistic effect.
Protectant activity of combinations against wheat brown rust (PUCCRT).
1 day protectant glasshouse studies.

CO/C=C(/C(=O)OC)c1ccccc1Oc1cc(Oc2ccccc2C#N)ncn1 [Azoxystrobin, azoxystrobin]
Percent Disease Control UNCINE ([1]; rate 25 ppm): *** (*** is 80-100 percent control of disease)
Observed Percent CONTROL ([2]; 6.25 ppm): 13.00%
Observed Percent CONTROL ([2]; 12.50 ppm): 15.00%
Observed Percent CONTROL ([2]; 25 ppm): 15%
Observed Percent CONTROL ([2]; 75 ppm): 52%
Observed Percent CONTROL ([2]; 100 ppm): 79%

C/C=C/C(=O)Oc1c(C(C)CCCCCC)cc([N+](=O)[O-])cc1[N+](=O)[O-] (centres unmarked) [Ex. 1, 2,4-dinitro-6-(1-methylheptyl)phenyl crotonate]
Percent disease control [3]: ** (** is 50-79 percent control of disease)
Percent disease control ([4]; PUCCRT, rate 200 ppm, high volume test): *** (*** is 80-100 percent control of disease)
Percent Disease Control PUCCRT ([4]; rate 12.5 ppm): * (* is 0-49 percent control of disease)
Percent Disease Control PUCCRT ([4]; rate 25 ppm): * (* is 0-49 percent control of disease)
Percent Disease Control PUCCRT ([4]; rate 50 ppm): ** (** is 50-79 percent control of disease)
Percent Disease Control PUCCRT ([4]; rate 100 ppm): *** (*** is 80-100 percent control of disease)
Percent disease control [5]: *** (*** is 80-100 percent control of disease)
Percent Disease Control ERYSGT ([6]; rate 50 ppm): *** (*** is 80-100 percent control of disease)
Percent Disease Control ERYSGT ([6]; rate 100 ppm): *** (*** is 80-100 percent control of disease)
Percent Disease Control UNCINE ([1]; rate 12.5 ppm): *** (*** is 80-100 percent control of disease)
Percent Disease Control UNCINE ([1]; rate 25 ppm): *** (*** is 80-100 percent control of disease)
Percent Disease Control UNCINE ([1]; rate 50 ppm): *** (*** is 80-100 percent control of disease)
Percent Disease Control UNCINE ([1]; rate 100 ppm): *** (*** is 80-100 percent control of disease)
Percent Disease Control VENTIN ([7]; rate 12.5 ppm): ** (** is 50-79 percent control of disease)
Percent Disease Control VENTIN ([7]; rate 25 ppm): ** (** is 50-79 percent control of disease)
Percent Disease Control VENTIN ([7]; rate 50 ppm): ** (** is 50-79 percent control of disease)
Percent Disease Control VENTIN ([7]; rate 100 ppm): *** (*** is 80-100 percent control of disease)
Observed Percent CONTROL ([8]; 12.50 ppm): 0.00%
Observed Percent CONTROL ([8]; 25.00 ppm): 11.76%
Observed Percent CONTROL ([8]; 50.00 ppm): 33.33%
Observed Percent CONTROL ([8]; 75.00 ppm): 68.63%
Observed Percent CONTROL ([2]; 75 ppm): 23.00%

OC(c1ccc(Cl)cc1)(c1cncnc1)c1ccccc1Cl (centres unmarked) [Fenarimol, fenarimol, reference compound]
Percent Disease Control VENTIN ([7]; rate 25 ppm): *** (*** is 80-100 percent control of disease)

CCCCC(C#N)(Cn1cncn1)c1ccc(Cl)cc1 (centres unmarked) [Myclobutanil, myclobutanil]
Observed Percent CONTROL ([8]; 3.13 ppm): 0.00%
Observed Percent CONTROL ([8]; 6.25 ppm): 27.45%
Observed Percent CONTROL ([8]; 12.50 ppm): 74.51%
Observed Percent CONTROL ([8]; 18.75 ppm): 84.31%

CCCN(CC)CC1COC2(CCC(C(C)(C)C)CC2)O1 (centres unmarked) [Spiroxamine, spiroxamine]
Observed Percent CONTROL ([2]; 12.50 ppm): 15.00%

mancozeb
Observed Percent CONTROL ([8]; 25.00 ppm): 0.00%
Observed Percent CONTROL ([8]; 50.00 ppm): 5.88%
Observed Percent CONTROL ([8]; 100.00 ppm): 58.82%
Observed Percent CONTROL ([8]; 200.00 ppm): 88.24%
